Tests used:
[1] = target: T1, full-length human CSNK1A1 (Homo sapiens, UniProt P48729); test: CSNK1A1 High ATP Assay (ADP-Glo, 1 mM ATP); assay type: biochemical; conditions: Table 3, read-out: CSNK1A1 high ATP assay IC50 [mol/l] (median);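 note: 30 min kinase reaction at 22 °C with 100 µM peptide substrate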
T1 construct: N-terminal Glutathion-S-Transferase (GST) and full-length human CSNK1A1; purchased Life Technologies PV4174; host or cells: baculovirus infected insect cells
Description: CSNK1A1-inhibitory activity of compounds of the present invention in presence of 1 mM adenosine-tri-phosphate (ATP) was quantified employing the CSNK1A1-high-ATP-assay as described in the following paragraphs. In essence, the enzyme activity is measured by quantification of the adenosine-di-phosphate (ADP), which is generated as a co-product of the enzyme reaction, via the “ADP-Glo™ Kinase Assay” kit from the company Promega. This detection system works as follows: In a first step the ATP not consumed in the kinase reaction is quantitatively converted to cAMP employing an adenylate cyclase (“ADP-Glo-reagent”), then the adenylate cyclase is stopped and the ADP generated in the kinase reaction converted to ATP which generates in a luciferase-based reaction a glow-luminescence signal (“Kinase Detection Reagent”).
(§1) Recombinant fusion protein of N-terminal Glutathion-S-Transferase (GST) and full-length human CSNK1A1, expressed by baculovirus infected insect cells and purified via Glutathion affinity chromatography, was purchased from Life Technologies (product no. PV4174) and used as enzyme. As substrate for the kinase reaction the biotinylated peptide biotin-Ahx-KRRRAL-pS-VASLPGL (C-terminus in amide form) was used which can be purchased e.g. from the company Biosyntan (Berlin-Buch, Germany).
For the assay 50 nl of a 100 fold concentrated solution of the test compound in DMSO was pipetted into a white low volume 384-well microtiter plate (Greiner Bio-One, Frickenhausen, Germany), 2 μL of a solution of CSNK1A1 in aqueous assay buffer [50 mM HEPES pH 7.5, 10% (v/v) glycerol, 10 mM MgCl2, 50 mM NaCl, 1 mM dithiothreitol, 0.01% (w/v) bovine serum albumin, 0.01% (v/v) Triton X-100] were added and the mixture was incubated for 15 min at 22° C. to allow pre-binding of the test compounds to the enzyme before the start of the kinase reaction. […] The concentration of CSNK1A1 was adjusted depending of the activity of the enzyme lot and was chosen appropriate to have the assay in the linear range, a typical concentration is about 0.4 ng/μL. The reaction was stopped by the addition of 2.5 μL of “ADP-Glo-reagent” (1:1.5 fold diluted with water) and the resulting mixture was incubated at 22° C. for 1 h to convert the ATP not consumed in the kinase reaction completely […]. Subsequently 2.5 μL of the “kinase detection reagent” (1.2 fold more concentrated than recommended by the producer) were added, the resulting mixture was incubated at 22° C. for 1 h and then the luminescence measured with a suitable measurement instrument (e.g. Viewlux™ from Perkin-Elmer). The amount of emitted light was taken as a measure for the amount of ADP generated and thereby for the activity of the CSNK1A1.

[2] = target: T1, full-length human CSNK1A1; test: CSNK1A1 Assay 2 (ADP-Glo, 1 μM ATP, substrate biotin-Ahx-KRRRAL-pS-VASLPGL); assay type: biochemical; conditions: Table 3, read-out: CSNK1A1 Assay 2 IC50 [mol/l] (median)
Description: CSNK1A1-inhibitory activity of compounds of the present invention in presence of 1 μM adenosine-tri-phosphate (ATP) was quantified employing the CSNK1A1 assay as described in the following paragraphs. In essence, the enzyme activity is measured by quantification of the adenosine-di-phosphate (ADP), which is generated as a co-product of the enzyme reaction, via the “ADP-Glo™ Kinase Assay” kit from the company Promega. This detection system works as follows: In a first step the ATP not consumed in the kinase reaction is quantitatively converted to cAMP employing an adenylate cyclase (“ADP-Glo-reagent”), then the adenylate cyclase is stopped and the ADP generated in the kinase reaction converted to ATP which generates in a luciferase-based reaction a glow-luminescence signal (“Kinase Detection Reagent”).
as §1
For the assay 50 nl of a 100 fold concentrated solution of the test compound in DMSO was pipetted into a white 1536-well microtiter plate (Greiner Bio-One, Frickenhausen, Germany), 2 μL of a solution of CSNK1A1 in aqueous assay buffer [50 mM HEPES pH 7.5, 10% (v/v) glycerol, 10 mM MgCl2, 50 mM NaCl, 1 mM dithiothreitol, 0.01% (w/v) bovine serum albumin, 0.01% (v/v) Triton X-100] were added and the mixture was incubated for 15 min at 22° C. to allow pre-binding of the test compounds to the enzyme before the start of the kinase reaction. […] The concentration of CSNK1A1 was adjusted depending of the activity of the enzyme lot and was chosen appropriate to have the assay in the linear range, a typical concentrations are about 0.0375 ng/μL. The reaction was stopped by the addition of 2.5 μL of “ADP-Glo-reagent” (1:1.5 fold diluted with water) and the resulting mixture was incubated at 22° C. for 1 h to convert the ATP not consumed in the kinase reaction completely […]. Subsequently 2.5 μL of the “kinase detection reagent” (1.2 fold more concentrated than recommended by the producer) were added, the resulting mixture was incubated at 22° C. for 1 h and then the luminescence measured with a suitable measurement instrument (e.g. Viewlux™ from Perkin-Elmer). The amount of emitted light was taken as a measure for the amount of ADP generated and thereby for the activity of the CSNK1A1.

T1 sequence (P48729 whole entry): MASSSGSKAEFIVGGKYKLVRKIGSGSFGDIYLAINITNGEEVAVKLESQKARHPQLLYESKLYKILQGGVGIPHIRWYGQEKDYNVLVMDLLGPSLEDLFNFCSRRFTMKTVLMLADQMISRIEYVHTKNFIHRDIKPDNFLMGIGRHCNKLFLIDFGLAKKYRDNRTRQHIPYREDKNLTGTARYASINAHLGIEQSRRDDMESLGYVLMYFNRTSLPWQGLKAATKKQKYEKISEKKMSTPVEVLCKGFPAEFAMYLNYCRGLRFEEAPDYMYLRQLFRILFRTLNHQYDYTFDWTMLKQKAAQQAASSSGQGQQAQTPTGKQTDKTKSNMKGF

SMILES | IC50 [1] | IC50 [2]
O=C(Nc1cc(-c2[nH]c3cccnc3c2-c2cccc(F)n2)ccn1)C(CC(F)F)c1ccc(F)cc1 (single isomer, unassigned; (+)) [Example 27, (+)-4,4-difluoro-2-(4-fluorophenyl)-N-{4-[3-(6-fluoropyridin-2-yl)-1H-pyrrolo[3,2-b]pyridin-2-yl]pyridin-2-yl}butanamide] | 1.55 nM | 1.55 nM
Cc1ccc2[nH]c(-c3ccnc(NC(=O)C(CC(F)F)c4ccc(F)cc4)c3)c(-c3ccccn3)c2n1 (racemic) [Example 4, 4,4-difluoro-2-(4-fluorophenyl)-N-{4-[5-methyl-3-(pyridin-2-yl)-1H-pyrrolo[3,2-b]pyridin-2-yl]pyridin-2-yl}butanamide] | 158 nM | 6.49 nM
O=C(Nc1cc(-c2[nH]c3c(OCC(F)(F)F)ncnc3c2-c2ccccn2)ccn1)C(CC(F)F)c1ccc(F)cc1 (racemic) [Example 122, (2RS)-4,4-difluoro-2-(4-fluorophenyl)-N-{4-[7-(pyridin-2-yl)-4-(2,2,2-trifluoroethoxy)-5H-pyrrolo[3,2-d]pyrimidin-6-yl]pyridin-2-yl}butanamide] | 29.9 nM | 7.69 nM
O=C(Nc1cc(-c2[nH]c3c(OCC(F)F)cc(F)nc3c2-c2ccccn2)ccn1)C(CC(F)F)c1ccc(F)cc1 (single isomer, unassigned) [Example 30, (2R or S)—N-{4-[7-(2,2-difluoroethoxy)-5-fluoro-3-(pyridin-2-yl)-1H-pyrrolo[3,2-b]pyridin-2-yl]pyridin-2-yl}-4,4-difluoro-2-(4-fluorophenyl)butanamide] | 8.84 nM | 8.84 nM
O=C(Nc1cc(-c2[nH]c3c(N4CCNCC4)ccnc3c2-c2ccccn2)ccn1)C(CC(F)F)c1ccc(F)cc1 (single isomer, unassigned) [Example 94, (2R or S)-4,4-difluoro-2-(4-fluorophenyl)-N-{4-[7-(piperazin-1-yl)-3-(pyridin-2-yl)-1H-pyrrolo[3,2-b]pyridin-2-yl]pyridin-2-yl}butanamide] | 2.31 nM | 2.31 nM
O=C(Nc1cc(-c2[nH]c3cncnc3c2-c2ccccn2)ccn1)C(CC(F)F)c1ccc(F)cc1 (racemic) [Example 13, 4,4-difluoro-2-(4-fluorophenyl)-N-{4-[7-(pyridin-2-yl)-5H-pyrrolo[3,2-d]pyrimidin-6-yl]pyridin-2-yl}butanamide] | 240 nM | 4.66 nM
O=C(Nc1cc(-c2[nH]c3c(OCC(F)(F)F)ncnc3c2-c2ccccn2)ccn1)C(CC(F)(F)F)c1ccc(F)cc1 (racemic) [Example 125, (2RS)-4,4,4-trifluoro-2-(4-fluorophenyl)-N-{4-[7-(pyridin-2-yl)-4-(2,2,2-trifluoroethoxy)-5H-pyrrolo[3,2-d]pyrimidin-6-yl]pyridin-2-yl}butanamide] | 46.1 nM | 14.8 nM
O=C(Nc1cc(-c2[nH]c3c(OCC4CC4)ncnc3c2-c2ccccn2)ccn1)C(CC(F)F)c1ccc(F)cc1 (racemic) [Example 128, (2RS)—N-{4-[4-(cyclopropylmethoxy)-7-(pyridin-2-yl)-5H-pyrrolo[3,2-d]pyrimidin-6-yl]pyridin-2-yl}-4,4-difluoro-2-(4-fluorophenyl)butanamide] | 47.4 nM | 8.03 nM
Cc1cnc2c(-c3ccccn3)c(-c3ccnc(NC(=O)C(CC(F)F)c4ccc(F)cc4)c3)[nH]c2c1 (racemic) [Example 7, 4,4-difluoro-2-(4-fluorophenyl)-N-{4-[6-methyl-3-(pyridin-2-yl)-1H-pyrrolo[3,2-b]pyridin-2-yl]pyridin-2-yl}butanamide] | 8.12 nM | 2.76 nM
O=C(Nc1cc(-c2[nH]c3c(OC4CC4)cc(F)nc3c2-c2ccccn2)ccn1)C(CC(F)F)c1ccc(F)cc1 (racemic) [Example 42, (rac)-N-{4-[7-(cyclopropyloxy)-5-fluoro-3-(pyridin-2-yl)-1H-pyrrolo[3,2-b]pyridin-2-yl]pyridin-2-yl}-4,4-difluoro-2-(4-fluorophenyl)butanamide] | 8.22 nM | 8.22 nM
O=C(Nc1cc(-c2[nH]c3c(OCC(F)F)cc(F)nc3c2-c2ccccn2)ccn1)C(CC(F)F)c1ccc(F)cc1 (racemic) [Example 28, (2RS)—N-{4-[7-(2,2-difluoroethoxy)-5-fluoro-3-(pyridin-2-yl)-1H-pyrrolo[3,2-b]pyridin-2-yl]pyridin-2-yl}-4,4-difluoro-2-(4-fluorophenyl)butanamide] | 3.95 nM | 3.95 nM
O=C(Nc1cc(-c2[nH]c3cc(F)cnc3c2-c2ccccn2)ccn1)C(CC(F)F)c1ccc(F)cc1 (single isomer, unassigned; (+)) [Example 17, (+)-4,4-difluoro-2-(4-fluorophenyl)-N-{4-[6-fluoro-3-(pyridin-2-yl)-1H-pyrrolo[3,2-b]pyridin-2-yl]pyridin-2-yl}butanamide] | 5.48 nM | 1.7 nM
O=C(Nc1cc(-c2[nH]c3nc(OC(F)F)cnc3c2-c2ccccn2)ccn1)C(CC(F)F)c1ccc(F)cc1 (centres unmarked) [Example 105, N-{4-[3-(difluoromethoxy)-7-(pyridin-2-yl)-5H-pyrrolo[2,3-b]pyrazin-6-yl]pyridin-2-yl}-4,4-difluoro-2-(4-fluorophenyl)butanamide] | 10.9 nM | 10.9 nM
COc1cnc2c(-c3ccccn3)c(-c3ccnc(NC(=O)C(CC(F)F)c4ccc(F)cc4)c3)[nH]c2n1 (single isomer, unassigned) [Example 102, 4,4-difluoro-2-(4-fluorophenyl)-N-{4-[3-methoxy-7-(pyridin-2-yl)-5H-pyrrolo[2,3-b]pyrazin-6-yl]pyridin-2-yl}butanamide] | 31.1 nM | 31.1 nM
O=C(Nc1cc(-c2[nH]c3c(OC4CC4)cc(F)nc3c2-c2ccccn2)ccn1)C(CC(F)F)c1ccc(F)cc1 (single isomer, unassigned) [Example 43, N-{4-[7-(cyclopropyloxy)-5-fluoro-3-(pyridin-2-yl)-1H-pyrrolo[3,2-b]pyridin-2-yl]pyridin-2-yl}-4,4-difluoro-2-(4-fluorophenyl)butanamide] | 10.2 nM | 10.2 nM
O=C(Nc1cc(-c2[nH]c3nccnc3c2-c2ccccn2)ccn1)C(CC(F)(F)F)c1ccc(F)cc1 (single isomer, unassigned) [Example 120, (2R or S)-4,4,4-trifluoro-2-(4-fluorophenyl)-N-{4-[7-(pyridin-2-yl)-5H-pyrrolo[2,3-b]pyrazin-6-yl]pyridin-2-yl}butanamide] | 35.8 nM | 1.36 nM

— patent US12692261B2, “Substituted heterocyclic compounds and therapeutic uses thereof” (Bayer Aktiengesellschaft, priority 2020, dated 2026)
